# Laboratory results: US12479927B2, “Compounds comprising cleavable linker and uses thereof” (priority 2017, dated 2025)
# Non-standard residues stand in square brackets, D forms with d. Residues, ends and D or L forms follow the SMILES beside them. Dolaproine = CO[C@@H]([C@@H]1CCCN1)[C@@H](C)C(=O)O; Dil = CC[C@H](C)[C@H](NC)[C@@H](CC(=O)O)OC; NMeV = CN[C@H](C(=O)O)C(C)C
# Legend:
# [1] = Plasma stability test, dog; assay type: in vitro ADME; conditions: beagle dog plasma, 37° C., up to 7 days, 300 μM
# Protocol: (§1) The compound A-1 obtained in Example 58 and MPS used as a standard material were dissolved in DMSO to make a concentration of 60 mM. Then, each of human plasma (Biochemed 752R-SC-PMG), mouse plasma (Biochemed 029-APSC-MP), rat plasma (Biochemed 031-APSC-MP), and beagle dog plasma (Biochemed 013-APSC-MP) were mixed with the compound and MPS to make a final concentration of 300 μM (final 0.5% DMSO). The resulting plasma mixtures were incubated at 37° C. water bath. Aliquots were taken before the reaction and on 1 day, 2 days, 4 days, and 7 days after the reaction, wherein each aliquot was 300 μL. To complete the reaction, two-fold volumes of acetonitrile was added, followed by brief vortexing, and centrifugation for plasma protein precipitation. Each supernatant obtained after centrifugation was collected and analyzed by HPLC. The compound A-1 was detected and quantitated in the mouse, rat, beagle dog, and human plasma for up to 7 days (>95%).
# [2] = Plasma stability test, mouse; assay type: in vitro ADME; conditions: 37° C., up to 7 days, 300 μM
# Protocol: as §1
# [3] = biological target: T1, Escherichia coli β-glucuronidase (Escherichia coli, UniProt P05804); assay: Enzymatic cleavage assay, Method 3; assay type: biochemical; conditions: Escherichia coli β-glucuronidase (Sigma G7396) in PBS buffer, PBS pH 7.4, 37° C., HPLC, read-out: TG release t1/2(min)
# T1 construct: purchased Sigma G7396
# T1 sequence (P05804 whole entry): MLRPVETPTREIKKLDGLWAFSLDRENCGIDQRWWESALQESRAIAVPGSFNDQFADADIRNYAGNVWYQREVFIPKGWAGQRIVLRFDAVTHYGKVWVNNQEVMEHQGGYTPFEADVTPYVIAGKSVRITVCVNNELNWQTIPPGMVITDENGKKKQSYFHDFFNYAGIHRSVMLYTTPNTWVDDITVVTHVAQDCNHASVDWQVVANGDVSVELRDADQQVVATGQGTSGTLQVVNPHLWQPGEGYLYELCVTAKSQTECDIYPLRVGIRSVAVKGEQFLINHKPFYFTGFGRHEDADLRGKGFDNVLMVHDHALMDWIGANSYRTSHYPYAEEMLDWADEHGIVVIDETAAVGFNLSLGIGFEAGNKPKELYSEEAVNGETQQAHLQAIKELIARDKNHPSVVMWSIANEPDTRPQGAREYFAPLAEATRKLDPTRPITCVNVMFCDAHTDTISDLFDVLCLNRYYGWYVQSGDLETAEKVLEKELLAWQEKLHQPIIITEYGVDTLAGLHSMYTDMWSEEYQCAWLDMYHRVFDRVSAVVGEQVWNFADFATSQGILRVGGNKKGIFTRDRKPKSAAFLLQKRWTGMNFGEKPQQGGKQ
# Protocol: Method 3) Escherichia coli β-glucuronidase
# The compounds A-1 and A-5 of the present invention were dissolved in DMSO, and mixed with PBS buffer solution to prepare a solution having a concentration of 500 μM (5% DMSO). MPS used as a standard material was prepared as a solution to have a concentration of 500 μM in PBS buffer solution. […] Then, 14 μL of enzyme solution (1 mg/mL) was added thereto, thereby preparing an enzyme reaction solution in a total amount of 700 μL. The reaction mixture was incubated at 37° C. Escherichia coli β-glucuronidase enzyme (Sigma G7396) was used in the reaction mixture.
# [4] = Plasma stability test, human; assay type: in vitro ADME; conditions: 37° C., up to 7 days, 300 μM
# Protocol: as §1
# [5] = Chemical stability in PBS; assay type: physicochemical; conditions: PBS (pH 7.4), room temperature, light blocked, 7 days incubation
# Protocol: The compound A-1 obtained by Example 58 was dissolved in DMSO, and mixed with PBS (pH 7.4) buffer solution to prepare a solution having a concentration of 500 μM (5% DMSO). MPS used as a standard material was prepared as a solution to have a concentration of 500 μM in PBS buffer solution. 420 μL of the buffer solution, and 140 μL of the compound A-1 solution and 140 μL of MPS solution were mixed, thereby preparing a reaction mixture in a total amount of 700 μL. The reaction mixture was incubated at room temperature while blocking the light. The reaction mixture was aliquoted on 0 day before the reaction and on 1 day, 2 days, 4 days, and 7 days after the reaction, wherein each aliquot amount was 70 μL. Then, the remaining compound A-1, MPS, and liberated tyrosine were quantitated by HPLC analysis.
# [6] = Plasma stability test, rat; assay type: in vitro ADME; conditions: 37° C., up to 7 days, 300 μM
# Protocol: as §1
# [7] = biological target: Escherichia coli β-galactosidase (Escherichia coli, UniProt P00722); assay: in vitro; conditions: recombinant enzyme
# Sequence of Escherichia coli β-galactosidase (P00722 2-1024): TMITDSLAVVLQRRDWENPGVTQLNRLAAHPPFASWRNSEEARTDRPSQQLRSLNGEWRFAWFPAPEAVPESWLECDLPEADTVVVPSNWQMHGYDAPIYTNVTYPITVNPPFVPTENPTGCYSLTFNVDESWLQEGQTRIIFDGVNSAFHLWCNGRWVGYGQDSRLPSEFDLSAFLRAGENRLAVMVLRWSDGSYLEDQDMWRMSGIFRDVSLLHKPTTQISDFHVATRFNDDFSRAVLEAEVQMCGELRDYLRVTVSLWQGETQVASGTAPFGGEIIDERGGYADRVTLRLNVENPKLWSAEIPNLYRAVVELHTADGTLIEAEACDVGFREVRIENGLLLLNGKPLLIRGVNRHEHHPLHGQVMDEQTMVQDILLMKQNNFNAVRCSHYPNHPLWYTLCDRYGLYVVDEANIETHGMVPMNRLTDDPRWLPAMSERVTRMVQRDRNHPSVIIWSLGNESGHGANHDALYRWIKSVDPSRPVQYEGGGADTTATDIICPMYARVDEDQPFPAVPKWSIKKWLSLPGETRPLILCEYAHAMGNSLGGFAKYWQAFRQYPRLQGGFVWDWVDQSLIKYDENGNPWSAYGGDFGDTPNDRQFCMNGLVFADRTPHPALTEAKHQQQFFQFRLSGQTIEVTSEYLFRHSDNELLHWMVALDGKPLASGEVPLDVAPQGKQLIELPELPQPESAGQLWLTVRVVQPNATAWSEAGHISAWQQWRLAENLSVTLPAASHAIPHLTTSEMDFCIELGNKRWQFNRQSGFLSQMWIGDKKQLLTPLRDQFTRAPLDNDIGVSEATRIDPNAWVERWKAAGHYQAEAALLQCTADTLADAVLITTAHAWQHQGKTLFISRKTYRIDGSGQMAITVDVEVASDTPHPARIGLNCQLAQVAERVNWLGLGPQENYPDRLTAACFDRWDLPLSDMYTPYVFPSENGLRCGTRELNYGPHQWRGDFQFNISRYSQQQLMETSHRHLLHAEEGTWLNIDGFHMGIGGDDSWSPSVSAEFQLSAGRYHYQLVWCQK
# Protocol: Method 1. Escherichia coli β-galactosidase
# MPS used as a standard material was dissolved in PBS buffer solution to make 500 uM solution. […] This was followed by the addition of enzyme solution (14 μL of 1 mg/mL). When comparing with human β-galactosidase, 21 μL of enzyme solution (1 mg/mL) was added to achieve the same molar concentration, and the compound of the present invention and MPS each having an amount of 140 μL and […] of the buffer solution (pH 7.4) were mixed. The resulting reaction mixture was incubated at 37° C. Escherichia coli β-galactosidase enzyme (Sigma G4155) was used in the reaction mixture. The enzyme reaction solution was aliquoted at 0 min before the reaction and at a predetermined time after the reaction, respectively, wherein each aliquot was 70 μL. Then, the remaining compound of the present invention or MPS, and a material liberated by the enzyme reaction were quantitatively analyzed by HPLC.
# [8] = tested on: Escherichia coli β-galactosidase + β-glucuronidase; assay: Enzymatic cleavage assay, Method 4; assay type: biochemical; conditions: PBS pH 7.4, 37° C., HPLC, read-out: TG release t1/2(min)
# Protocol: Method 4 Escherichia coli β-Galactosidase+β-Glucuronidase
# The compound A-5 of the present invention was dissolved in DMSO, and mixed with PBS buffer solution to prepare a solution having a concentration of 500 μM (5% DMSO). MPS used as a standard material was prepared as a solution to have a concentration of 500 μM in PBS buffer solution. […] Then, 14 μL of 1 mg/mL of β-galactosidase (Sigma G4155) and 14 μL of 1 mg/mL of β-glucuronidase (Sigma G7396) were added thereto, thereby preparing an enzyme reaction mixture in a total amount of 700 μL. The reaction mixture was incubated at 37° C.
# Human β-galactosidase = biological target: T2, Human β-galactosidase (Homo sapiens, UniProt P16278); assay: Enzymatic cleavage assay, Method 2; assay type: biochemical; conditions: recombinant enzyme; for Q part release t1/2(min): 100 μM
# T2 construct: purchased R&D 6464-GH-020
# T2 sequence (P16278 29-677): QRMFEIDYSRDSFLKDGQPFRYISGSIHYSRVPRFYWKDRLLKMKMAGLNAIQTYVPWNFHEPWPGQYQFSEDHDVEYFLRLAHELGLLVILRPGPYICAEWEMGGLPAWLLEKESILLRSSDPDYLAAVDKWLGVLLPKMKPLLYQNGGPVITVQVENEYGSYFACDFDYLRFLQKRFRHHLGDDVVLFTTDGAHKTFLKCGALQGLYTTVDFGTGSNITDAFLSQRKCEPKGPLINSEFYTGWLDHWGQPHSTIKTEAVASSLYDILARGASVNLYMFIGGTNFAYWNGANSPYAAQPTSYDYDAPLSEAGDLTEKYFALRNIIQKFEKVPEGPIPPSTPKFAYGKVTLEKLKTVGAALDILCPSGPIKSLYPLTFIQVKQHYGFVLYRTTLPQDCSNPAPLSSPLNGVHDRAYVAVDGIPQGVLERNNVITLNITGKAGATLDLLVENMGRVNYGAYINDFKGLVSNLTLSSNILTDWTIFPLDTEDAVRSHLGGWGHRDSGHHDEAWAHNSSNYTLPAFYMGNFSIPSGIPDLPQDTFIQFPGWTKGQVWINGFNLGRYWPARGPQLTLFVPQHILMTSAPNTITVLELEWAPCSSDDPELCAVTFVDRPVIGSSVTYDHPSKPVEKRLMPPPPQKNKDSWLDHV
# Protocol: Method 2) Human β-galactosidase
# MPS used as a standard material was prepared as a solution to have a concentration of 500 μM in PBS buffer solution. […] Then, 140 μL of 0.1 mg/mL enzyme solution was added thereto, thereby preparing an enzyme reaction solution in a total amount of 700 μL. The reaction mixture was incubated at 37° C. Human β-galactosidase enzyme (R&D 6464-GH-020) was used in the reaction mixture.
# KB cancer cells [9] = assay: cells; assay type: cell-based; conditions: MTT; 72 hours, 96 hours, or 144 hours of incubation; read-out: KB cell IC50
# Protocol: KB cancer cells were collected and seeded in 24-well plates at a density of 30,000 cells per well in 2 mL of medium, and cultured for 24 hours. Then, the serial dilutions of compound C-1 obtained in Example 108 were treated from 30 nM to 0.0096 nM, the serial dilutions of compound C-2 obtained in Example 109 were treated from 1000 nM to 0.32 nM, serial dilutions of the compound C-3 obtained in Example 110 and the compound C-7 obtained in Example 114 were treated from 25 nM to 0.0016 nM, and serial dilutions of the drug MMAF-OMe were treated from 10 nM to 0.0097 nM. The serial dilutions of compounds C-5 and C-6 obtained in Example 112 and Example 113 were treated from 100 nM to 0.0001 nM, and the serial dilutions of drug seco-DUBA were treated from 100 nM to 0.001 nM. Serial dilutions of the compounds C-4 and C-9 obtained in Example 111 and Example 116 were treated from 1000 nM to 0.001 nM, and the serial dilutions of drug CBI dimer were treated by from 10 nM to 0.00001 nM. Serial dilutions of the compound C-8 obtained in Example 115 and the drug CBI-indole were treated from 100 nM to 0.0001 nM. After 72 hours, 96 hours, or 144 hours of incubation, 0.2 mL of 3-(4,5-dimethylthiazol-2-yl)-2,5-diphenyltetrazolium bromide (MTT) dye, dissolved in PBS buffer solution (5 mg/mL), was added to each well of the plates. The formazans formed by reduction of the MTT dye by mitochondrial oxidoreductases in the living cells were dissolved in DMSO, and measured using the absorbance at 550 nm.
# KB cancer cells [10] = assay: In vitro analysis of protein-drug conjugate, KB; assay type: cell-based; conditions: 96 hours, read-out: KB cell IC50
# Protocol: (§2) KB cancer cells were collected and seeded in 24-well plates at a density of 30,000 cells per well in 2 mL of medium, and cultured for 24 hours. Then, the serial dilutions of compound C-1 obtained in Example 108 were treated from 30 nM to 0.0096 nM, the serial dilutions of compound C-2 obtained in Example 109 were treated from 1000 nM to 0.32 nM, serial dilutions of the compound C-3 obtained in Example 110 and the compound C-7 obtained in Example 114 were treated from 25 nM to 0.0016 nM, and serial dilutions of the drug MMAF-OMe were treated from 10 nM to 0.0097 nM. The serial dilutions of compounds C-5 and C-6 obtained in Example 112 and Example 113 were treated from 100 nM to 0.0001 nM, and the serial dilutions of drug seco-DUBA were treated from 100 nM to 0.001 nM. […] The formazans formed by reduction of the MTT dye by mitochondrial oxidoreductases in the living cells were dissolved in DMSO, and measured using the absorbance at 550 nm.
# (§3) KB, SKBR-3, BT-474, NCI-N87 cancer cells were seeded in 96-well plates at a density of 2,000 to 8,000 cells per well in 100 μL of medium, and cultured for 24 hours. […] Experiments were performed in a similar manner to Test Example 3 to quantify living cells 96 hours later, and results are shown in Tables 4 and 5 below.
# SKBR-3 cancer cells = assay: In vitro analysis of antibody-drug conjugate, SKBR-3; assay type: cell-based; conditions: 96 hours
# Protocol: as §2, §3
# BT-474 cancer cells = assay: In vitro analysis of antibody-drug conjugate, BT-474; assay type: cell-based; conditions: 96 hours
# Protocol: as §2, §3
# NCI-N87 cells = assay: In vivo efficacy, tumor xenograft; design: species or system mice; conditions: male BALB/c nu/nu, single i.v. injection day 0, 2 mg/kg
# Protocol: In vivo efficacy of antibody-drug conjugates of the invention was measured by tumor xenograft studies in mice. Male BALB/c nu/nu were injected subcutaneously in the right flank with suspensions of 1×10^6 of NCI-N87 cells respectively in PBS. Mice were randomized into study groups when tumors reached approximately 100 mm^3. T-DM1 (2 mg/kg), D-1-AB, D-2-AB, D-8-AB, and D-18-AB conjugates (0.5 mg/kg or 2 mg/kg) were given i.v. (single injection on treatment day 0). All treatment groups consisted of 6 to 10 animals per group, and tumor size was monitored twice weekly using caliper measurement. The tumor mass was calculated as volume=(width×width×length)/2.
# NCI-N87 cancer cells = assay: In vitro analysis of antibody-drug conjugate, NCI-N87; assay type: cell-based; conditions: 96 hours
# Protocol: as §2, §3
compound,measurement,setting,value
CC(C)(C)OC(=O)NC(Cc1ccc(OS(=O)(=O)Oc2ccccc2O[C@@H]2O[C@H](CO)[C@H](O)[C@H](O)[C@H]2O)cc1)C(=O)O (stereo partly drawn) [Compound A-1],compound detected and quantitated in plasma,[1],> 95%
same,compound detected and quantitated in plasma,[2],> 95%
same,half-life at 100 μM,[3],0.43 ± 0.11 min
same,compound detected and quantitated in plasma,[4],> 95%
same,compound present (remaining),[5],> 95%
same,compound detected and quantitated in plasma,[6],> 95%
CC(C)(C)OC(=O)N[C@H](Cc1ccc(OS(=O)(=O)Oc2ccccc2O[C@@H]2O[C@H](COC3O[C@H](C(=O)O)[C@@H](O)[C@H](O)[C@H]3O)[C@H](O)[C@H](O)[C@H]2O)cc1)C(=O)O (stereo partly drawn) [Compound A-5],half-life at 100 μM,[3],< 5 min
same,half-life at 100 μM,[7]; pH 7.4,< 5 min
same,half-life at 100 μM,[8],< 5 min
CCc1c2c(nc3ccc(OS(=O)(=O)Oc4cc(C(=O)NCCOCCOCCOCCN=[N+]=[N-])ccc4O[C@@H]4O[C@H](CO)[C@H](O)[C@H](O)[C@H]4O)cc13)-c1cc3c(c(=O)n1C2)COC(=O)[C@]3(O)CC [Compound B-2],half-life at 100 μM,[7]; pH 5,5.75 min
same,half-life at 100 μM,[7]; pH 7.4,0.28 min
same,Q part release t1/2(min),Human β-galactosidase; pH 5,39.41 min
same,Q part release t1/2(min),Human β-galactosidase; pH 7.4,112.2 min
same,half-life at 100 μM,Human β-galactosidase; pH 5,5.33 min
CC[C@H](C)[C@@H]([C@@H](CC(=O)N1CCC[C@H]1[C@H](OC)[C@@H](C)C(=O)N[C@@H](Cc1ccccc1)C(=O)OC)OC)N(C)C(=O)[C@@H](NC(=O)[C@@H](NC)C(C)C)C(C)C [MMAF-OMe] (H-[NMeV]V[Dil][Dolaproine]F-OMe),IC50,KB cancer cells [9],350 ± 70 pM
same,IC50,KB cancer cells [10]; values marked * (asterisk not explained),160 pM
same,IC50,KB cancer cells [10]; values without asterisk,440 pM
T-DM1,IC50,SKBR-3 cancer cells,0.02 nM
same,IC50,BT-474 cancer cells,0.18 nM
same,activity compared with the conjugates of the invention,NCI-N87 cells,less active
same,IC50,NCI-N87 cancer cells,0.02 nM
